For orientation: IC50 means the concentration that inhibits the measured activity by half.

The subject of series [1] is L6 cells. The experiment in a line: Acute metabolic switch assay (cellular ATP content, glucose vs galactose media) in L6 differentiated myotubes. As to conditions: for IC50: Rattus norvegicus, L6, 2 h. How it is done: They were then seeded into collagen-coated wells (50 µg/mL in 0.02 M of acetic acid) at a density of 16,000 cells/100 μL/well (96 well plates) and 10,000 cells/100 μL/well (XF 96-well cell culture microplates). The cells were next incubated for 24 h in complete growth medium to promote adherence, after which the growth medium was removed and the cells washed twice with 1× HBSS. The L6 myoblasts were then cultured in differentiation medium consisting of high-glucose DMEM (25 mM) supplemented with L-glutamine (4 mM), sodium pyruvate (1 mM), HEPES (5 mM), and horse serum (2% v/v). Fresh differentiation medium was provided every 48 h for 7 days.
(§1) On the day of the assay, the media on the differentiated myotubes were replaced with either serum-free high-glucose (DMEM, 25 mM of glucose, 4 mM of L-glutamine, 1 mM of sodium pyruvate, and 5 mM of HEPES) or serum-free galactose (DMEM, 10 mM of galactose, 6 mM of L-glutamine, 1 mM of sodium pyruvate, and 5 mM of HEPES) media (100 µL) for 2 h (37 °C, 5% CO2). The glucose and galactose media were removed and replaced with drug-dosing solutions in either glucose or galactose media as appropriate, before incubation (2 h, 37 °C, 5% CO2). […] Vehicle control was included in each experiment.
(§2) The cellular ATP content was measured using a bioluminescence assay kit, alongside the concomitant measurement of protein using a bicinchoninic acid (BCA) assay kit to normalise ATP data to the total protein. Briefly, the cells were lysed using ATP lysis buffer (50 µL/well) and the plate was shaken (5 min). According to the manufacturer’s instructions, 40 µL of ATP reagent was added to each well containing 5 µL of cell lysate in a white 96-well plate. The […] luminescence signal was measured immediately using a plate reader (Varioskan, Thermo Scientific, Schaumburg, IL USA).

Another series relates to HSKMDC. The experiment in a line: Mitochondrial stress test (Seahorse XFe96 respirometry) in HSKMDC. The class given is cell-based, human. The note with it: acute injection. How it is done: On the day of the assay, for the analysis of the acute injection of the drug on differentiated myotubes, the differentiation media was replaced with 175 µL of unbuffered Seahorse Assay media supplemented with 25 mM of glucose, 4 mM of L-glutamine, 1 mM of sodium pyruvate, and 5 mM of HEPES pre-warmed to 37 °C, then incubated in a CO2 free incubator at 37 °C for 1 h. Alternately, in the pre-treatment strategy, differentiated myotubes were pre-treated with the drug for 5 h in differentiation medium, then transferred to a CO2-free incubator at 37 °C for 1 h. Next, the differentiation media were replaced with 175 µL of unbuffered Seahorse Assay media supplemented with the constituents stated above. Briefly, using the XF^e96 instrument (Seahorse extracellular flux analyser, Agilent Technologies, Santa Clara, CA, USA), the oxygen partial pressure in each well was allowed to reach equilibrium for 10 min. The oxygen consumption rate (OCR) was measured three times at baseline; then, there was a 3 min mix for each measurement followed by a 3 min wait. […] In the acute injection method, the drug injection was only performed at the end of the basal measurement cycles, followed by the mitochondrial inhibitors described above. The duration of the assay was 120 min (acute injection) and 90 min (pre-treatment strategy). From each mitochondrial stress test was determined the OCR parameters of non-mitochondrial respiration (NMR = lowest measurement after rotenone/antimycin A); basal respiration (BR = last measurement before oligomycin − NMR); proton-leak (PL = BR − lowest respiration after oligomycin); ATP-linked respiration (ALR = BR − PL); maximum respiratory capacity (MRC = highest measurement after FCCP − NMR); and spare respiratory capacity (SRC = MRC − BR).

The nature of series [2]: FAERS analysis of reported rhabdomyolysis cases per suspect drug. As to conditions: for (%) of total rhabdomyolysis cases / Number of Rhabdomyolysis Cases / Number of Rhabdomyolysis Cases (n = 6583): FAERS 2004 to 31 March 2020; for (%) of total rhabdomyolysis cases: of 27,140 cases; for Number of Rhabdomyolysis Cases: total 27,140 rhabdomyolysis cases, some cases with more than one suspected drug; for Number of Death Cases (n = 576): monotherapy rhabdomyolysis cases with fatal outcome; for (%) of monotherapy rhabdomyolysis cases: of 6583 cases; for Number of Rhabdomyolysis Cases (n = 6583): suspected drug reported as a single drug used (monotherapy).
Description: Due to the quarterly updating of the database by the FDA, the searches were performed using the term “rhabdomyolysis” on one occasion to ensure the data were extracted at that specified period. All individual files were downloaded and saved from this one timepoint to specify the analysis period used in this study. Further refinement was performed using Microsoft Excel to extract only cases where the suspect drug was reported as a monotherapy, using the generic name of the suspect drugs. To ensure data accuracy, any case reported by a consumer or company underwent further checks to ensure it had not been previously reported by a healthcare provider, by confirming that no duplication of case ID was present.

Series [3] has as its system L6 cells. The note with it: 6 h exposure.
Description: The mitochondrial stress test allowed confirmation of mitotoxicity and further identification of the specific mechanisms through quantification of OXPHOS parameters: basal respiration (BR), ATP-linked respiration (ALR), and spare respiratory capacity (SRC). On the day of the assay, for the analysis of the acute injection of the drug on differentiated myotubes, the differentiation media was replaced with 175 µL of unbuffered Seahorse Assay media supplemented with 25 mM of glucose, 4 mM of L-glutamine, 1 mM of sodium pyruvate, and 5 mM of HEPES pre-warmed to 37 °C, then incubated in a CO2 free incubator at 37 °C for 1 h. Alternately, in the pre-treatment strategy, differentiated myotubes were pre-treated with the drug for 5 h in differentiation medium, then transferred to a CO2-free incubator at 37 °C for 1 h. Next, the differentiation media were replaced with 175 µL of unbuffered Seahorse Assay media supplemented with the constituents stated above. Briefly, using the XF^e96 instrument (Seahorse extracellular flux analyser, Agilent Technologies, Santa Clara, CA, USA), the oxygen partial pressure in each well was allowed to reach equilibrium for 10 min. The oxygen consumption rate (OCR) was measured three times at baseline; then, there was a 3 min mix for each measurement followed by a 3 min wait. […] In the acute injection method, the drug injection was only performed at the end of the basal measurement cycles, followed by the mitochondrial inhibitors described above. The duration of the assay was 120 min (acute injection) and 90 min (pre-treatment strategy). From each mitochondrial stress test was determined the OCR parameters of non-mitochondrial respiration (NMR = lowest measurement after rotenone/antimycin A); basal respiration (BR = last measurement before oligomycin − NMR); proton-leak (PL = BR − lowest respiration after oligomycin); ATP-linked respiration (ALR = BR − PL); maximum respiratory capacity (MRC = highest measurement after FCCP − NMR); and spare respiratory capacity (SRC = MRC − BR) [42, 43].
The subject of series [4] is primary human skeletal muscle-derived cells (HSKMDC). The experiment in a line: cells. It is filed as cell-based. The note with it: 2 h exposure; for IC50: Homo sapiens, Myotube, mean ± S.D. (n = 3). How it is done:
(§3) HSKMDC myoblasts were collected by trypsinisation using trypsin-EDTA (0.05%) upon reaching 50% confluence and seeded into collagen-coated wells, at a density of 20,000 cells/100 μL/well (96 well plates) and 25,000 cells/100 μL/well (XF 96-well cell culture microplates). After 24 h, the cells were washed twice with 1× PBS (-/-), and growth media were replaced with differentiation medium containing DMEM low-glucose media (glucose 5 mM), L-glutamine (4 mM), sodium pyruvate (1 mM) supplemented with 2% (v/v) horse serum, and (10 nM) human insulin. The medium was refreshed every 48 h for 5 days.
as §1, §2

For series [5] the test system is unchanged. The experiment in a line: cells. The class given is cell-based. As to conditions: for IC50: Homo sapiens, Myotube, 2 h. How it is done:
as §3, §1
Cytotoxicity was detected using a lactate dehydrogenase (LDH) assay kit. Briefly, according to the manufacturers’ instructions, 25 µL of the supernatant and 10 µL of cell lysate were incubated with 50 µL of LDH reagent for 30 min in the dark. Samples were read at 490 nm using a plate reader.

[6] abbreviates: L6 cells, 2 h exposure, based on IC50-ATPglu vs IC50-ATPgal.

SMILES strings stand for the structures. Like-named read-outs stand apart in the source and are kept apart here.

On to `CC(C)OC(=O)C(C)(C)Oc1ccc(C(=O)c2ccc(Cl)cc2)cc1` [Fenofibrate], for which, in the series with L6 cells [1] (setting [6]), the “Mitotoxicity classification in acute metabolic switch assay” value (from here on “Mitotoxicity classification”) is “containing a mitochondrial liability”. Besides, in the series on HSKMDC, the “Classification from pattern of changes in BR, ALR and SRC” value (“Classification from pattern of changes” below) is “direct inhibitors of the electron transport chain”; the “Concentration at which significant reduction of ATP-linked respiration was first observed” value was 3.6 µM. Besides, in series [2], the “(%) of total rhabdomyolysis cases” value is reported as 1.7%, the “Number of Rhabdomyolysis Cases” value is given as 449, the “Number of Death Cases (n = 576)” value was found to be 6 and the “(%) of monotherapy rhabdomyolysis cases” value was 1.9%. Also, the “Number of Rhabdomyolysis Cases (n = 6583)” value (“Number … (n = 6583)” below) in series [2] was found to be 126. The “Classification from pattern of changes” value in the series on L6 cells [3] is “direct inhibitors of the electron transport chain”.
`CC(C)C[C@H](CN)CC(=O)O` [Pregabalin]: in the series with L6 cells [1] (read-out: ATP IC50 Glucose), the IC50 was over 300 µM. In series [2], the “(%) of total rhabdomyolysis cases” value amounted to 1.6%, the “Number of Rhabdomyolysis Cases” value was found to be 442, the “Number of Death Cases (n = 576)” value is on record as 13 and the “(%) of monotherapy rhabdomyolysis cases” value is recorded as 2.0%. The “Number … (n = 6583)” value in series [2] was 132. For the same compound, in the series with L6 cells [3], the “Classification from pattern of changes” value is “direct inhibitors of the electron transport chain”.
As to `CC(C)c1cccc(C(C)C)c1O` [Propofol], the “Mitotoxicity classification” value in the series on L6 cells [1] is recorded as “multi-mechanistic”. The IC50 with L6 cells [1] (read-out: ATP IC50 Galactose) stood at 242 ± 13.4 µM. In addition, in the series on L6 cells [1] (read-out: ATP IC50 Glucose), the IC50 is over 300 µM. Further, in series [2], the “(%) of total rhabdomyolysis cases” value turned out to be 1.6%, the “Number of Rhabdomyolysis Cases” value was determined as 434, the “Number of Death Cases (n = 576)” value is 70 and the “(%) of monotherapy rhabdomyolysis cases” value is 2.7%. Further, the “Number … (n = 6583)” value in series [2] stood at 179. For the same compound, the “ROR (reported odds ratio)” value in series [2] (rhabdomyolysis with suspected drug vs all other drugs in FAERS) was 2.2. Further, the “Classification from pattern of changes” value with L6 cells [3] is recorded as “direct inhibitors of the electron transport chain”.
In the case of `Cc1nc2n(c(=O)c1CCN1CCC(c3noc4cc(F)ccc34)CC1)CCCC2` [Risperidone], the “Mitotoxicity classification” value in the series on L6 cells [1] (setting [6]) was “containing a mitochondrial liability”. Moreover, in the series on HSKMDC, the “Classification from pattern of changes” value is reported as “direct inhibitors of the electron transport chain”; the “Concentration at which significant reduction of ATP-linked respiration was first observed” value was 11 µM. Further, the “Number of Death Cases (n = 576)” value in series [2] came to 7. Also, the “Classification from pattern of changes” value with L6 cells [3] is listed as “direct inhibitors of the electron transport chain”.
With `C=C(C)[C@H]1Cc2c(ccc3c2O[C@@H]2COc4cc(OC)c(OC)cc4[C@@H]2C3=O)O1` [Rotenone], the “IC50-ATPglu/IC50-ATPgal” value in series [4] is >318.4 (<0.0001); in series [4] (listed as rotenone), over 318; in the series on L6 cells [1] (L6 cells, 2 h exposure, […]) it was >138.9 (<0.0001). Further, the IC50 in series [4] (galactose serum-free media, read-out: ATP IC50 Galactose) was 0.016 ± 0.007 µM; in series [4] (glucose serum-free media, read-out: ATP IC50 Glucose), over 5 µM; in the series with L6 cells [1] (read-out: ATP IC50 Galactose), 0.036 ± 0.008 µM; in the series on L6 cells [1] (read-out: ATP IC50 Glucose) it was over 5 µM; in series [5] (read-out: LDH IC50 Galactose), over 5 µM; in series [5] (read-out: LDH IC50 Glucose) it was over 5 µM. Also, the “IC50-LDH gal/ IC50-ATP al” value in series [5] (HSKMDC, 2 h exposure, galactose media) is recorded as over 312.5.

(Values after article PMC10216605, “Developing In Vitro Models to Define the Role of Direct Mitochondrial Toxicity in Frequently Reported Drug-Induced Rhabdomyolysis” (Biomedicines, 2023).)
